A short description of data set [1]: DRUGMATRIX: Sigma2 radioligand binding (ligand: [3H] Ifenprodil). The format is cell membranes, Rattus norvegicus, Wistar, Brain, Membrane. To be noted: Not Active = under 50% inhibition at 10 µM.
A further data set addresses T1, Cytochrome P450 2A6 (Homo sapiens, UniProt P11509).
T1 sequence (P11509 whole entry): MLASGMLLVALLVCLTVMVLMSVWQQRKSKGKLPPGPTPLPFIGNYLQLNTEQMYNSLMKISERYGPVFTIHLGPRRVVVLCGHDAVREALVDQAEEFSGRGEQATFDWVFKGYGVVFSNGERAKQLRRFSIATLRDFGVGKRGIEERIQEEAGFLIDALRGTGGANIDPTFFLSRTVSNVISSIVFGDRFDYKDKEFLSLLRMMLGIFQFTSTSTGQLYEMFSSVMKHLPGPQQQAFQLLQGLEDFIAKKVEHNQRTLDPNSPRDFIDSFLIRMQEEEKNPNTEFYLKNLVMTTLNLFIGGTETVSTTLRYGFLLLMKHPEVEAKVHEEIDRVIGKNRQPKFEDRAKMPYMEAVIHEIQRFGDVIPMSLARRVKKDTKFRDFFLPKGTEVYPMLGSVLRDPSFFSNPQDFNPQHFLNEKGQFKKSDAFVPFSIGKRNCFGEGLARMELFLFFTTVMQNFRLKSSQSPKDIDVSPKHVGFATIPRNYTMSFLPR
The note with it: bti-tn-5b1-4.

Data set [2] addresses T2, Alpha-1D adrenergic receptor (Homo sapiens, UniProt P25100).
T2 sequence (P25100 whole entry): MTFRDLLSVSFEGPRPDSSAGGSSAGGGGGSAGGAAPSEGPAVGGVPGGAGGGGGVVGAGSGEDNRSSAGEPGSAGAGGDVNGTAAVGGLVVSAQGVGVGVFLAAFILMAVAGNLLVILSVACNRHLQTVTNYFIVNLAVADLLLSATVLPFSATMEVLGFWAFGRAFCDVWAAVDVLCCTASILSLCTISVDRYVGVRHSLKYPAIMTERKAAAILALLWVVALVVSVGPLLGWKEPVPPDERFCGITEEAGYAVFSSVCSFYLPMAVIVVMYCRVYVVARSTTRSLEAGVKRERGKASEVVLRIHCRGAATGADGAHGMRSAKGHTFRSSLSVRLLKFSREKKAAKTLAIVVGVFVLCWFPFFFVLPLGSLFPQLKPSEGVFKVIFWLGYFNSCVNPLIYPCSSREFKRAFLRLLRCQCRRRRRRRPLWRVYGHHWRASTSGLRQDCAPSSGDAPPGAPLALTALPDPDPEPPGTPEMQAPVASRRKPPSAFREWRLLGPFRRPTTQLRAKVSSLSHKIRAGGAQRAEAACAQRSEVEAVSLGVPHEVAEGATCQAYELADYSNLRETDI
The format is cell membranes, HEK293, Membrane. The note with it: hek293.

In another data set the target is Cannabinoid receptor 1 (Homo sapiens, UniProt P21554). Format: cell membranes, Membrane. The note with it: chem-1. Note: in other assays of this panel Not Active means under 50% inhibition at 10 µM.
Sequence of Cannabinoid receptor 1 (P21554 whole entry): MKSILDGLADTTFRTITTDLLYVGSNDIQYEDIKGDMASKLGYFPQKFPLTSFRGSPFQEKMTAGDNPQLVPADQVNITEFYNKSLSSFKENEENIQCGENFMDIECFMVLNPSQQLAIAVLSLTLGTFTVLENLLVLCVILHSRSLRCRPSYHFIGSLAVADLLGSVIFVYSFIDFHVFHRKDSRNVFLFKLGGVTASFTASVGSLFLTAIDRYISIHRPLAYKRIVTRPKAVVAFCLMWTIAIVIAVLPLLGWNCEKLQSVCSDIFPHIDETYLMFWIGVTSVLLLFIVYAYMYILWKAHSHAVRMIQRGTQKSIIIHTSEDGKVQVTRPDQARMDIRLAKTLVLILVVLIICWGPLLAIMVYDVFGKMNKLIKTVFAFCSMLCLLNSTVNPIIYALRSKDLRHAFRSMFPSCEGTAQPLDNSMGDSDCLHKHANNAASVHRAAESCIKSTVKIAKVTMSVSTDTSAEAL
A further data set concerns the target T3, Adenosine receptor A3 (Homo sapiens, UniProt P0DMS8).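 Note: radioligand binding assay with AB-MECA serving as the labeled ligand; in other assays of this panel Not Active means under 50% inhibition at 10 µM.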
T3 sequence (P0DMS8 whole entry): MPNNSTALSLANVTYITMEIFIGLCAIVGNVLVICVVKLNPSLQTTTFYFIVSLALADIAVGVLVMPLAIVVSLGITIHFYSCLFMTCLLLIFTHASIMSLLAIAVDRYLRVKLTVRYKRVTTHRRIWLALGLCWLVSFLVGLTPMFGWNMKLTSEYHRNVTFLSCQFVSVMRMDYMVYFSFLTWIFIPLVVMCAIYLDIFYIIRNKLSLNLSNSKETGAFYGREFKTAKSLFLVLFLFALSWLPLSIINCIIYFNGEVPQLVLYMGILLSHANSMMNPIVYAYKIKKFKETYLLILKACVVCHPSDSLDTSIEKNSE
The format is cell membranes, CHO-K1, Membrane. To be noted: cho-k1.

The next data set addresses T4, Leukotriene C4 synthase (Cavia porcellus, UniProt A6XA80).
T4 sequence (A6XA80 whole entry): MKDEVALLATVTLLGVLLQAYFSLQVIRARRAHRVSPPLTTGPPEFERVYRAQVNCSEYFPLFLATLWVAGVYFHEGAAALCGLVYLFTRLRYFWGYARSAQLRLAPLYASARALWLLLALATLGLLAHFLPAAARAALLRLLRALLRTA
Kind of data set: biochemical. The format is tissue-based, Lung.

The target in data set [3] is Tyrosine-protein kinase Fyn (Homo sapiens, UniProt P06241). Kind of data set: biochemical. Format: cell-based, Insect cells.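 Note: enzymatic inhibition of Fyn kinase activity measured with Poly(Glu:Tyr) as the phosphorylation substrate; in other assays of this panel Not Active means under 50% inhibition at 10 µM.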
Sequence of Tyrosine-protein kinase Fyn (P06241 whole entry): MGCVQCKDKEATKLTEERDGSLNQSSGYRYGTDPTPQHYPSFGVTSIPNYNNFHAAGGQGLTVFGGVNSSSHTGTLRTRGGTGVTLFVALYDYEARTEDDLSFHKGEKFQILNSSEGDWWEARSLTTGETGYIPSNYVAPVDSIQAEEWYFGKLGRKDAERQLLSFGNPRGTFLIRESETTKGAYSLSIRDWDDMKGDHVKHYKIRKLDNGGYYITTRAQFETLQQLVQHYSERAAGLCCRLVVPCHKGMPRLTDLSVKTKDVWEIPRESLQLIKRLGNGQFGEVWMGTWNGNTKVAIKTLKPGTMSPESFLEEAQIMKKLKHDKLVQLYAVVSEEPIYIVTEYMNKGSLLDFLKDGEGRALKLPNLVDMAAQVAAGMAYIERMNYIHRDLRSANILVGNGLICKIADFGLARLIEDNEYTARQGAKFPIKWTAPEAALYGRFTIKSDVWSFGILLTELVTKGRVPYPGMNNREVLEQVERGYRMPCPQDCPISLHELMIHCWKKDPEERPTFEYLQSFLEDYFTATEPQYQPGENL
Data set [4] has as its target Mitogen-activated protein kinase 14 (Homo sapiens, UniProt Q16539). Set-up: species or system Escherichia coli.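 Note: inhibition of p38alpha enzyme activity in a biochemical kinase assay, with myelin basic protein serving as substrate; in other assays of this panel Not Active means under 50% inhibition at 10 µM.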
In a further data set the target is Cytochrome P450 2C9 (Homo sapiens, UniProt P11712). To be noted: bti-tn-5b1-4. Note: in other assays of this panel Not Active means under 50% inhibition at 10 µM.
Sequence of Cytochrome P450 2C9 (P11712 whole entry): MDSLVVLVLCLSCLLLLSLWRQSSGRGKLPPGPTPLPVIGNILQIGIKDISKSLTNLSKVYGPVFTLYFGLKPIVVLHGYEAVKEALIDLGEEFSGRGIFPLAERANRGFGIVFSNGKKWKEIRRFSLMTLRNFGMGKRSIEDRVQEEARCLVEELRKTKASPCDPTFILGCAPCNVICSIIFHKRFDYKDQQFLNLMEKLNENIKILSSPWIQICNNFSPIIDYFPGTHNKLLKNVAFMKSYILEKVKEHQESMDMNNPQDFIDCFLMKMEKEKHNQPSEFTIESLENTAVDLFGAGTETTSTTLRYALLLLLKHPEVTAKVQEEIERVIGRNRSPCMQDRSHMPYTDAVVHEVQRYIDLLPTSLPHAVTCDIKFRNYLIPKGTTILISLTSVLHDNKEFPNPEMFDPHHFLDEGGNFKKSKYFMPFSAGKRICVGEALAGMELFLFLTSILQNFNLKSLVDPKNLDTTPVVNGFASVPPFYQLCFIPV
Another data set concerns the target Acetylcholinesterase (Homo sapiens, UniProt P22303). The data set is described as follows: DRUGMATRIX: Acetylcholinesterase enzyme inhibition (substrate: acetylthiocholine). Format: cell-based, HEK293. The note with it: Not Active = under 50% inhibition at 10 µM.
The nature of data set [5]: DRUGMATRIX: GABAA, Muscimol, Central radioligand binding (ligand: [3H] Muscimol). The format is cell membranes, Rattus norvegicus, Wistar, Brain, Membrane. The note with it: Not Active = under 50% inhibition at 10 µM.
The next data set has as its target T5, Substance-K receptor (Homo sapiens, UniProt P21452). Note: in other assays of this panel Not Active means under 50% inhibition at 10 µM.
T5 sequence (P21452 whole entry): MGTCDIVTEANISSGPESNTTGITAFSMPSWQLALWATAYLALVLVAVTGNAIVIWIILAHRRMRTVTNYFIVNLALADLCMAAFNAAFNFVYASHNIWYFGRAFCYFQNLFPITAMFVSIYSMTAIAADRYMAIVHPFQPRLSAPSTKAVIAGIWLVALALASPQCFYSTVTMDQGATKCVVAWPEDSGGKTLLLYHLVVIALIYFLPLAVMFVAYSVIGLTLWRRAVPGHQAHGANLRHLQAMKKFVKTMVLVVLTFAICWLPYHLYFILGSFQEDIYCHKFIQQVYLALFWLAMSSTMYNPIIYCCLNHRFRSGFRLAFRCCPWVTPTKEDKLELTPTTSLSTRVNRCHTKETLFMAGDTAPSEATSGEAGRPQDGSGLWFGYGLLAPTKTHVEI
The format is cell membranes, CHO, Membrane. To be noted: cho.

Another data set has as its target Carbonic anhydrase 2 (Homo sapiens, UniProt P00918). Kind of data set: DRUGMATRIX: Carbonic Anhydrase II enzyme inhibition (substrate: 4-Nitrophenyl acetate (4-NPA)). The format is tissue-based, Erythrocyte. The note with it: erythrocyte; Not Active = under 50% inhibition at 10 µM.

Sequence of Mitogen-activated protein kinase 14 (Q16539 whole entry): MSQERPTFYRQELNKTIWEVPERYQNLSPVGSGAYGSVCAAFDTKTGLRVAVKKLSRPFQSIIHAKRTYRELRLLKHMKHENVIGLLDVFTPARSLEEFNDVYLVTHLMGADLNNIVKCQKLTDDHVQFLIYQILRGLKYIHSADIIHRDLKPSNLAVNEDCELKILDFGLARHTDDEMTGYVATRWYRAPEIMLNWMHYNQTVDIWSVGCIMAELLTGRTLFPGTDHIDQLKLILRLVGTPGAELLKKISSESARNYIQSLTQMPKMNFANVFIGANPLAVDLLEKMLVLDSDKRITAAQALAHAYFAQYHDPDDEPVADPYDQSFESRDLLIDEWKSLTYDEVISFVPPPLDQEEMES
Sequence of Acetylcholinesterase (P22303 whole entry): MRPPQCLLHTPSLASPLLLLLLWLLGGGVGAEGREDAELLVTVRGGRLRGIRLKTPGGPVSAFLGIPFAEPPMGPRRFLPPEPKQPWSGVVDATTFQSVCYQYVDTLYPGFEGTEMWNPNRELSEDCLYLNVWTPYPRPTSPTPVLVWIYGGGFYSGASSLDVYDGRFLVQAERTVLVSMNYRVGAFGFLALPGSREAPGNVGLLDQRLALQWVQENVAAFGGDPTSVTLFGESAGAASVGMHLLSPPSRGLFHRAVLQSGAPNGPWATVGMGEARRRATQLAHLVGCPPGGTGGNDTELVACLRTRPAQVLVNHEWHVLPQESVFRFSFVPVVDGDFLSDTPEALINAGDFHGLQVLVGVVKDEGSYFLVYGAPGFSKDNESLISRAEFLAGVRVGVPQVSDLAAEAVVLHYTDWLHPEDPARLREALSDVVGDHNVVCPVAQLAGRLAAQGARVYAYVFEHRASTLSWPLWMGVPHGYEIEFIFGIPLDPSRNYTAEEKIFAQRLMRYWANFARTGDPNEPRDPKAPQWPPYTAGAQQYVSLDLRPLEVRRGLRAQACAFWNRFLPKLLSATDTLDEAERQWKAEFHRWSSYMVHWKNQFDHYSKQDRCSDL

In the case of `COc1ccc2cc(CC(=O)O)ccc2c1`, the IC50 (commonly the concentration at which inhibition is half-maximal) in [1] was “Not Active”; against Cytochrome P450 2A6, “Not Active”; in data set [2], “Not Active”; at Cannabinoid receptor 1, “Not Active”; against Adenosine receptor A3, “Not Active”; on Leukotriene C4 synthase (read-out: IC50) it was 49.7 µM. The IC50 entry (in data set [3] (insect cells); in data set [4]; on Cytochrome P450 2C9; on Acetylcholinesterase (hek293); in data set [5]; at Substance-K receptor) was “Not Active” each time. Moreover, the IC50 result at Carbonic anhydrase 2 is listed as “Not Active”. The Ki entry (in data set [1]; at Cytochrome P450 2A6; on Cytochrome P450 2C9; in data set [5]) was “Not Active” throughout.
For the compound `c1ccc2c(c1)cc1ccc3cccc4ccc2c1c34`, the half-inhibitory concentration (IC50) result (in data set [1]; against Cytochrome P450 2A6; in data set [2]; against Cannabinoid receptor 1; at Adenosine receptor A3; against Leukotriene C4 synthase) was “Not Active” throughout. Also, the IC50 in [3] (read-out: IC50) was 26.2 µM; in data set [4] it was “Not Active”; against Cytochrome P450 2C9, “Not Active”; on Acetylcholinesterase (read-out: IC50), 28 µM; in data set [5], “Not Active”; against Substance-K receptor, “Not Active”. Besides, the half-maximal inhibitory concentration (IC50) result against Carbonic anhydrase 2 was “Not Active”. The Ki result (in [1]; at Cytochrome P450 2A6; on Cytochrome P450 2C9; in [5]) was “Not Active” each time.
On to `O=C1CCc2cc(OCCCCc3nnnn3C3CCCCC3)ccc2N1` [CILOSTAZOL], for which the IC50 entry (in data set [1]; against Cytochrome P450 2A6; in data set [2]; against Cannabinoid receptor 1; against Adenosine receptor A3; on Leukotriene C4 synthase) was “Not Active” each time. Further, the concentration for half-maximal inhibition (IC50) result (in data set [3] (insect cells); in [4]; on Acetylcholinesterase (hek293); in data set [5]; at Substance-K receptor; on Carbonic anhydrase 2) was “Not Active” each time. The Ki result (in data set [1]; on Cytochrome P450 2A6; in [5]) was “Not Active” throughout.
Turning to `O=C(O)c1cn(C2CC2)c2cc(N3CCNCC3)c(F)cc2c1=O` [CIPROFLOXACIN], the IC50 entry (in data set [1]; at Cytochrome P450 2A6; in [2]; at Cannabinoid receptor 1; on Adenosine receptor A3; against Leukotriene C4 synthase) was “Not Active” in each case. The IC50 entry (in [3] (insect cells); in data set [4]; against Acetylcholinesterase (hek293); in [5]; at Substance-K receptor; against Carbonic anhydrase 2) was “Not Active” throughout. In addition, the Ki result (in [1]; at Cytochrome P450 2A6; in [5]) was “Not Active” each time.
Take `CC(C)n1c(/C=C/C(O)CC(O)CC(=O)O)c(-c2ccc(F)cc2)c2ccccc21` (centres undefined) [FLUVASTATIN]: the IC50 result (in data set [1]; against Cytochrome P450 2A6; in data set [2]; against Cannabinoid receptor 1; against Adenosine receptor A3; on Leukotriene C4 synthase) was “Not Active” in each case. Moreover, the IC50 entry (in [3] (insect cells); in data set [4]; against Acetylcholinesterase (hek293); in [5]; against Substance-K receptor; on Carbonic anhydrase 2) was “Not Active” throughout. Further, the Ki entry (in data set [1]; at Cytochrome P450 2A6; in data set [5]) was “Not Active” each time.
`CN1CCC[C@H]1c1cccnc1` [NICOTINE]: the IC50 entry (in data set [1]; against Cytochrome P450 2A6; in [2]; against Cannabinoid receptor 1; against Adenosine receptor A3; against Leukotriene C4 synthase) was “Not Active” throughout. Also, the IC50 entry (in data set [3] (insect cells); in [4]; against Acetylcholinesterase (hek293); in [5]; against Substance-K receptor; against Carbonic anhydrase 2) was “Not Active” each time. Further, the Ki result (in [1]; on Cytochrome P450 2A6; in data set [5]) was “Not Active” in each case.
Take `Oc1cccc2cccnc12` [OXYQUINOLINE]: the 50% inhibitory concentration (IC50) result (in [1]; against Cytochrome P450 2A6; in [2]; against Cannabinoid receptor 1; against Adenosine receptor A3; on Leukotriene C4 synthase) was “Not Active” in each case. Further, the half-inhibitory concentration (IC50) entry (in data set [3] (insect cells); in [4]; against Acetylcholinesterase (hek293); in data set [5]; against Substance-K receptor; against Carbonic anhydrase 2) was “Not Active” throughout. Also, the Ki result (in data set [1]; at Cytochrome P450 2A6; in [5]) was “Not Active” each time.

The record behind these values is ChEMBL document CHEMBL1909046, “DrugMatrix in vitro pharmacology data”.
